# Results reported in patent US10639276B2, “Liposomes with ginsenoside as membrane material and preparations and use thereof” (SHANGHAI GINPOSOME PHARMATECH CO., LTD., priority 2015, dated 2020).
# Experiments:
# Assay in all cases: Cell survival rate, cell experiment in vitro (MTT)
# [1] = test system: paclitaxel-resistant human pancreatic cancer cell line (BxPC-3/T); format: cell-based
# Description: The new recovery BxPC-3 cells were cultured for two generations or three generations under conventional conditions to make the cells grow stably.
# [2] = test system: human ovarian cancer cell line (A2780)
# Description: (§1) Assay of cell experiment in vitro: tumor cells at logarithmic growth phase were collected, resuspended in a DMEM complete culture-medium (containing 10% fetal bovine serum, 100 U/ml penicillin, 100 μg/ml streptomycin) and a final concentration was 4×10^4 cells/ml. In a 96-well cell culture plate, 200 μl above cell suspension was added into each well (8×10^3 cells/well), and cultured for 48 h in a cell incubator at 37° C. filled with 5% CO2. The DMEM complete culture-medium was respectively replaced with 200 μL antitumor drug with different concentrations. The final concentrations of the drugs were set no less than six groups. The DMEM complete culture-medium was as the negative control group. Each concentration was set 4 wells and the experiment was repeated for 3 times. 20 μl 5 mg/mL MTT solution was added into each well after the cells were cultured for 72 h in a cell incubator at 37° C. filled with 5% CO2. The supernatant was discarded after it was further cultured for 4 h in a cell incubator. 150 μl DMSO was added into each well, shaked for 10 min. An OD was determined at 490 nm by a continuous spectrum multifunctional microplate reader (Tecan infinite M 200 TECAN, Switzerland). The cell survival rate was calculated by the following formula: (the cell survival rate (%)=ODdrug/ODcontrol×100%). Cell survival rate (%)=OD490(sample)/OD490(control)×100%;
# (§2) Wherein OD490(sample) is the OD of the experimental group, OD490(control) is the OD of the blank control group.
# [3] = test system: paclitaxel-resistant human ovarian cancer cell line (A2780/T)
# Description: as §1, §2
structure (smiles),measurement,setting,value
"CC(=O)O[C@H]1C(=O)[C@@]2(C)[C@H]([C@H](OC(=O)c3ccccc3)[C@]3(O)C[C@H](OC(=O)[C@H](O)[C@@H](NC(=O)c4ccccc4)c4ccccc4)C(C)=C1C3(C)C)[C@]1(OC(C)=O)CO[C@@H]1C[C@@H]2O [Taxol, paclitaxel]",Cell Viability,"[1]; C (μM): Taxol + Rg5 1.5625 + 9.375, Taxol 1.5625, Blank Rg5 9.375",0.85
same,Cell Viability,"[1]; C (μM): Taxol + Rg5 12.5 + 75, Taxol 12.5, Blank Rg5 75",0.639
same,Cell Viability,"[1]; C (μM): Taxol + Rg5 25 + 150, Taxol 25, Blank Rg5 150",0.454
same,Cell Viability,"[1]; C (μM): Taxol + Rg5 50 + 300, Taxol 50, Blank Rg5 300",0.272
same,Cell Viability,"[1]; C (μM): Taxol + Rg5 200 + 1200, Taxol 200, Blank Rg5 1200",0.15
same,Cell Viability,"[1]; C (μM): Taxol + Rg5 400 + 2400, Taxol 400, Blank Rg5 2400",0.134
same,Cell Viability,"[2]; C (μM): Taxol + Rg5 0.001953 + 0.011719, Taxol 0.001953, Blank Rg5 0.011719, Abraxane 0.001953",0.866
same,Cell Viability,"[2]; C (μM): Taxol + Rg5 0.007813 + 0.046875, Taxol 0.007813, Blank Rg5 0.046875, Abraxane 0.007813",0.818
same,Cell Viability,"[2]; C (μM): Taxol + Rg5 0.015625 + 0.09375, Taxol 0.015625, Blank Rg5 0.09375, Abraxane 0.015625",0.673
same,Cell Viability,"[2]; C (μM): Taxol + Rg5 0.03125 + 0.1875, Taxol 0.03125, Blank Rg5 0.1875, Abraxane 0.03125",0.443
same,Cell Viability,"[2]; C (μM): Taxol + Rg5 0.25 + 1.5, Taxol 0.25, Blank Rg5 1.5, Abraxane 0.25",0.204
same,Cell Viability,"[2]; C (μM): Taxol + Rg5 0.5 + 3, Taxol 0.5, Blank Rg5 3, Abraxane 0.5",0.185
same,Cell Viability,"[2]; C (μM): Taxol + Rg5 1 + 6, Taxol 1, Blank Rg5 6, Abraxane 1",0.133
same,Cell Viability,"[3]; C (μM): Taxol + Rg5 1.5625 + 9.375, Taxol 1.5625, Blank Rg5 9.375, Abraxane 1.5625",0.856
same,Cell Viability,"[3]; C (μM): Taxol + Rg5 6.25 + 37.5, Taxol 6.25, Blank Rg5 37.5, Abraxane 6.25",0.654
same,Cell Viability,"[3]; C (μM): Taxol + Rg5 12.5 + 75, Taxol 12.5, Blank Rg5 75, Abraxane 12.5",0.393
same,Cell Viability,"[3]; C (μM): Taxol + Rg5 400 + 2400, Taxol 400, Blank Rg5 2400, Abraxane 400",0.139
